# Values quoted from earlier work, collected in patent publication US11865207B2, “Topical pharmaceutical composition for treatment of anal fissures and hemorrhoids” (Ferring B.V., priority 2018, dated 2024).
# Tested on: anal fissures
# Settings: 2% topical diltiazem in an ointment
smiles,measurement,value
COc1ccc([C@@H]2Sc3ccccc3N(CCN(C)C)C(=O)[C@@H]2OC(C)=O)cc1 [diltiazem],healing rate,75%
